Tested on: GNS166 cells
Assay: Label-free proteomics differential expression
Format: cell-based, human
Protocol: Proteomic studies were performed by the Proteomics Facility of the CIC bioGUNE by label-free relative quantification on nLC MS/MS. […] In both approaches, the top 20 enriched terms were plotted and the pathways were clustered using divisive hierarchical clustering based on pairwise Jaccard distances.

[1] = label-free proteomics, sheet DDI Prot

## C#CCN(Cc1cc2cc(OCCCN3CCCCC3)ccc2n1S(=O)(=O)c1ccccc1)C(=O)CCCCCCC(=O)NO [DDI]
[1]
  Direction of BIEA_HUMAN (P53004, GN=BLVRA) protein: Up
  Direction of CASP3_HUMAN (P42574, GN=CASP3) protein: Up
  Direction of COEA1_HUMAN (Q05707, GN=COL14A1) protein: Up
  Direction of GSH1_HUMAN (P48506, GN=GCLC) protein: Up
  Direction of LKHA4_HUMAN (P09960, GN=LTA4H) protein: Up
  Direction of NDUAC_HUMAN (Q9UI09, GN=NDUFA12) protein: Up
  Direction of PGPS1_HUMAN (Q32NB8, GN=PGS1) protein: Up
  Direction of PTSS1_HUMAN (P48651, GN=PTDSS1) protein: Up
  Direction of RETST_HUMAN (Q6NUM9, GN=RETSAT) protein: Up
  Direction of WDR47_HUMAN (O94967, GN=WDR47) protein: Up
  Direction of YIPF5_HUMAN (Q969M3, GN=YIPF5) protein: Up
label-free proteomics, sheet DDI Prot, p value 0.0469656
  LogFC of PGPS1_HUMAN (Q32NB8, GN=PGS1) protein: 1.405
label-free proteomics, sheet DDI Prot, p value 0.0475587
  LogFC of BIEA_HUMAN (P53004, GN=BLVRA) protein: 0.7997
label-free proteomics, sheet DDI Prot, p value 0.0480187
  LogFC of GSH1_HUMAN (P48506, GN=GCLC) protein: 1.55
label-free proteomics, sheet DDI Prot, p value 0.0482259
  LogFC of WDR47_HUMAN (O94967, GN=WDR47) protein: 1.18
label-free proteomics, sheet DDI Prot, p value 0.0482636
  LogFC of LKHA4_HUMAN (P09960, GN=LTA4H) protein: 0.5863
label-free proteomics, sheet DDI Prot, p value 0.0487326
  LogFC of CASP3_HUMAN (P42574, GN=CASP3) protein: 0.743
label-free proteomics, sheet DDI Prot, p value 0.049075
  LogFC of YIPF5_HUMAN (Q969M3, GN=YIPF5) protein: 0.5348
label-free proteomics, sheet DDI Prot, p value 0.0492119
  LogFC of NDUAC_HUMAN (Q9UI09, GN=NDUFA12) protein: 0.6479
label-free proteomics, sheet DDI Prot, p value 0.0493344
  LogFC of COEA1_HUMAN (Q05707, GN=COL14A1) protein: 0.8788
label-free proteomics, sheet DDI Prot, p value 0.049447
  LogFC of RETST_HUMAN (Q6NUM9, GN=RETSAT) protein: 0.7532
label-free proteomics, sheet DDI Prot, p value 0.0494892
  LogFC of PTSS1_HUMAN (P48651, GN=PTDSS1) protein: 0.7741
Protein A5YKK6
  Direction CNOT1_HUMAN: Down
  LogFC CNOT1_HUMAN: -0.5343
Protein A6NI47
  Direction POTEM_HUMAN: Down
  LogFC POTEM_HUMAN: -1.6004
Protein O00154 GN=ACOT7
  LogFC BACH_HUMAN: 0.4908
Protein O00186 GN=STXBP3
  LogFC STXB3_HUMAN: -0.9203
Protein O00443
  Direction P3C2A_HUMAN: Down
  LogFC P3C2A_HUMAN: -0.6873
Protein O00560 GN=SDCBP
  LogFC SDCB1_HUMAN: 2.446
Protein O00571
  Direction DDX3X_HUMAN: Down
  LogFC DDX3X_HUMAN: -0.4203
Protein O00767 GN=SCD
  LogFC ACOD_HUMAN: 1.2881
Protein O14497
  Direction ARI1A_HUMAN: Down
  LogFC ARI1A_HUMAN: -1.314
Protein O14656 GN=TOR1A
  LogFC TOR1A_HUMAN: -0.6936
Protein O14744
  Direction ANM5_HUMAN: Down
  LogFC ANM5_HUMAN: -0.2326
Protein O14757
  Direction CHK1_HUMAN: Down
  LogFC CHK1_HUMAN: -0.9245
Protein O14908 GN=GIPC1
  LogFC GIPC1_HUMAN: 1.5016
Protein O14965
  Direction AURKA_HUMAN: Down
  LogFC AURKA_HUMAN: -3.358
Protein O15121
  Direction DEGS1_HUMAN: Down
  LogFC DEGS1_HUMAN: -0.1717
Protein O15173 GN=PGRMC2
  LogFC PGRC2_HUMAN: 0.7586
Protein O15254 GN=ACOX3
  LogFC ACOX3_HUMAN: 1.235
Protein O15294
  Direction OGT1_HUMAN: Down
  LogFC OGT1_HUMAN: -0.4734
Protein O15321
  Direction TM9S1_HUMAN: Down
  LogFC TM9S1_HUMAN: -2.186
Protein O15344 GN=MID1
  LogFC TRI18_HUMAN: 0.3983
Protein O15357
  Direction SHIP2_HUMAN: Down
  LogFC SHIP2_HUMAN: -1.6838
Protein O15360
  Direction FANCA_HUMAN: Down
  LogFC FANCA_HUMAN: -1.214
Protein O15427 GN=SLC16A3
  LogFC MOT4_HUMAN: 1.9
Protein O15439
  Direction MRP4_HUMAN: Down
  LogFC MRP4_HUMAN: -0.8149
Protein O15533 GN=TAPBP
  LogFC TPSN_HUMAN: -0.5526
Protein O43242 GN=PSMD3
  LogFC PSMD3_HUMAN: -0.4067
Protein O43252 GN=PAPSS1
  LogFC PAPS1_HUMAN: 0.7138
Protein O43314
  Direction VIP2_HUMAN: Down
  LogFC VIP2_HUMAN: -0.766
Protein O43615 GN=TIMM44
  LogFC TIM44_HUMAN: -0.5983
Protein O43709
  Direction BUD23_HUMAN: Down
  LogFC BUD23_HUMAN: -2.307
Protein O43823
  Direction AKAP8_HUMAN: Down
  LogFC AKAP8_HUMAN: -2.082
Protein O43824
  Direction GTPB6_HUMAN: Down
  LogFC GTPB6_HUMAN: -1.261
Protein O60333
  Direction KIF1B_HUMAN: Down
  LogFC KIF1B_HUMAN: -2
Protein O60462 GN=NRP2
  LogFC NRP2_HUMAN: -0.6899
Protein O60502 GN=OGA
  LogFC OGA_HUMAN: 0.8005
Protein O60518 GN=RANBP6
  LogFC RNBP6_HUMAN: 1.52
Protein O75131 GN=CPNE3
  LogFC CPNE3_HUMAN: 0.4901
Protein O75146 GN=HIP1R
  LogFC HIP1R_HUMAN: 2.1312
Protein O75153
  Direction CLU_HUMAN: Down
  LogFC CLU_HUMAN: -0.6987
Protein O75352
  Direction MPU1_HUMAN: Down
  LogFC MPU1_HUMAN: -0.8716
Protein O75354
  Direction ENTP6_HUMAN: Down
  LogFC ENTP6_HUMAN: -1.463
Protein O75431 GN=MTX2
  LogFC MTX2_HUMAN: -0.4239
Protein O75691
  Direction UTP20_HUMAN: Down
  LogFC UTP20_HUMAN: -1.068
Protein O75937
  Direction DNJC8_HUMAN: Down
  LogFC DNJC8_HUMAN: -0.4544
Protein O75954
  Direction TSN9_HUMAN: Down
  LogFC TSN9_HUMAN: -3.176
Protein O76094 GN=SRP72
  LogFC SRP72_HUMAN: -0.4411
Protein O94829 GN=IPO13
  LogFC IPO13_HUMAN: 1.054
Protein O94854 GN=KIAA0754
  LogFC K0754_HUMAN: -2.89
Protein O94925 GN=GLS
  LogFC GLSK_HUMAN: 1.0422
Protein O94964
  Direction SOGA1_HUMAN: Down
  LogFC SOGA1_HUMAN: -1.709
Protein O95071
  Direction UBR5_HUMAN: Down
  LogFC UBR5_HUMAN: -1.078
Protein O95166 GN=GABARAP
  LogFC GBRAP_HUMAN: 0.6601
Protein O95239
  Direction KIF4A_HUMAN: Down
  LogFC KIF4A_HUMAN: -2.337
Protein O95249
  Direction GOSR1_HUMAN: Down
  LogFC GOSR1_HUMAN: -1.68
Protein O95251
  Direction KAT7_HUMAN: Down
  LogFC KAT7_HUMAN: -3.074
Protein O95347
  Direction SMC2_HUMAN: Down
  LogFC SMC2_HUMAN: -0.9053
Protein O95363 GN=FARS2
  LogFC SYFM_HUMAN: -0.6412
Protein O95479 GN=H6PD
  LogFC G6PE_HUMAN: -1.176
Protein O95573 GN=ACSL3
  LogFC ACSL3_HUMAN: 1.019
Protein O95671 GN=ASMTL
  LogFC ASML_HUMAN: 3.03
Protein O95793
  Direction STAU1_HUMAN: Down
